Data reported in publication PMC4696656, “Insights into the Mechanism of Action of Bactericidal Lipophosphonoxins” (PLoS ONE, 2015).
Converted amounts (≈) assume the structure as drawn. “And” between values parts separate entries of the source, which are not always exact repeats. Equal entries are not always repeated.

Assays:
[1] = Conductance measurements in planar lipid membranes (BLM); assay type: biochemical; conditions: 5 mg/L, 1M KCl, 10 mM Tris, pH 7.4, 45 mV
Method: A Teflon chamber was divided into two compartments connected by a circular aperture of about 0.5 mm in diameter. Black lipid bilayer membranes were formed by painting a solution of 3% (w/v) asolectin (type IIS phosphatidylcholine; Sigma-Aldrich) in n-decane/butanol (9:1, v/v) across the hole. Both compartments contained 2 ml of 10 mM Tris, 1M KCl, pH 7.4. The temperature was kept at 25°C. Tested LPPO was added to the cis side of the membrane at a concentration of 5 mg/L. The membrane current was measured with Ag/AgCl electrodes (Theta) with salt bridges (applied voltage 45 mV, cis positive), amplified by LCA-200-100G or LCA-4k-1G amplifier (Femto) and digitized by KPCI-3108 card (Keithly). The signal was processed by QuB software. The histograms of single pore conductance was calculated from at least 500 events using a 50 pS bin size and fitted with Gaussian functions using Fityk software.

[2] = system: Bacteroides fragilis CCM 4712; assay: MIC against anaerobic bacteria, tube dilution method; assay type: cell-based; conditions: CCM4712, anaerobic conditions, 35°C, 48 h (confirmed 72 h)
S. aureus MRSA 4591 = assay: MIC, standard microdilution method; conditions: Staphylococcus aureus, 24 h
[3] = system: Staphylococcus haemolyticus 16568; assay: MIC, standard microdilution method; conditions: Staphylococcus haemolyticus, 16568, 24 h
[4] = Carboxyfluorescein leakage assay, LUV from bacterial lipids; assay type: biochemical, Bacillus subtilis; conditions: for Hill coefficient n, rapid initial phase of CF release: LPPO 0.8 mg/L, 60 μM phospholipid, 25°C
Method: Bacterial phospholipids were extracted with hexane/2-propanol (3:2, v/v) mixture from B. subtilis 168 cell biomass (2000 ml of culture in LB medium) harvested in exponential phase by rapid filtration (Synpor no. 5 filter, Pragochema, Czech Republic). Phospholipids from human erythrocytes (0.5 ml, volunteer blood donor) were extracted with chloroform/2-propanol mixture (7:11, v/v) after hemolysis using distilled water. After evaporation of the solvent in vaccuo at 40°C, the phospholipids were dissolved in chloroform, filtered through glass fiber filters (Whatman) and concentrated under a stream of nitrogen. The lipid samples were stored at -80°C and used for liposome preparation.
Vesicles to be used in the carboxyfluorescein (CF) leakage assay were prepared by mixing the appropriate amount of lipids (1 mg/ml) with chloroform/methanol 2:1 (v/v). The solvent was subsequently evaporated under a nitrogen gas stream obtaining a thin film on the walls of a glass tube. The hydration procedure in a buffer containing 50 mM CF, 5 mM HEPES pH 7.4 lasted for 60 min at 40°C, interrupted by thorough vortexing to form multilamellar vesicles. Large unilamellar vesicles (LUV) were prepared by repeated extrusion of the multilamellar vesicles through 100 nm polycarbonate filters (Avestin) using the LiposoFast Basic apparatus (Avestin, Canada). Vesicles were separated from nonencapsulated dye by gel filtration on Sephadex G-50 using 100 mM NaCl, 0.5 mM Na2EDTA and 5 mM HEPES, pH 7.4 as elution buffer. Fractions with the highest content of the entrapped dye were pooled and dissolved in the same buffer to the final phospholipid concentration of 60 μM.
The release of vesicle contents after adding LPPO solutions was evaluated by the increased fluorescence intensity of CF released into the milieu which we express as the percentage of leakage. […] Maximum release of CF fluorescence (F max) was induced by lysing the vesicles with 0.1% (v/v) Triton X-100. Fluorescence intensity was monitored in time (excitation at 480 nm, emission at 515 nm) at 25°C using FluoroMax-3 (Jobin Yvon, Horriba) spectrofluorometer. The following equation was used to calculate the percent of CF leakage: % CF leakage = [(F–F 0)/(F max−F 0)] × 100, where F is the actual fluorescence intensity and F 0 is the fluorescence intensity before addition of the permeabilizing agent. Using Fityk software the time courses of liposome lysis were fitted by a function: α(1-exp(-t/τ))^n, where t is the time, α is the amplitude of the effect, τ is the time constant of the effect, and n is Hill coefficient (S3 Fig).

[5] = system: Peptostreptococcus anaerobius; assay: MIC against anaerobic bacteria, tube dilution method; assay type: cell-based; conditions: anaerobic conditions, 35°C, 48 h (confirmed 72 h)
[6] = system: Enterococcus faecium VanA 419/ana; assay: MIC, standard microdilution method; conditions: VANA419/ANA, 24 h

Row | Compound | further conductance states observed [1] | most frequent single pore conductance step [1] | MIC [2] | MIC (S. aureus MRSA 4591) | MIC [3] | Hill coefficient n, rapid initial phase of CF release [4] | MIC [5] | MIC [6] | fit Hill coefficient n, initial phase f(x) ([4]; S3 Fig data set) | fit Hill coefficient n, latter phase g(x) ([4]; S3 Fig data set) | fit amplitude α, initial phase f(x) of liposome lysis ([4]; S3 Fig data set) | fit amplitude α, latter phase g(x) of liposome lysis ([4]; S3 Fig data set) | fit time constant τ, initial phase f(x) ([4]; S3 Fig data set) | fit time constant τ, latter phase g(x) ([4]; S3 Fig data set)
1 | CCCCCCCCCCCCCCCCOCCCOP(=O)(CCN1C[C@@H](O)[C@H](O)C1)OC[C@H]1O[C@@H](n2ccc(=O)[nH]c2=O)[C@H](O)[C@@H]1O (stereo partly drawn) [DR5047] | 270 ± 79 pS and 510 ± 77 pS | 70 ± 37 pS | 6.25 µg/mL (≈ 8.68 µM) | > 200 µg/mL | > 200 µg/mL | 0.7 ± 0.1 | 1.56 µg/mL (≈ 2.17 µM) | 6.25 µg/mL (≈ 8.68 µM) | – | – | – | – | – | –
2 | CCCCCCCCCCCCCCCCOP(=O)(CCN1C[C@@H](O)[C@H](O)C1)OC[C@H]1O[C@@H](n2ccc(=O)[nH]c2=O)[C@H](O)[C@@H]1O (stereo partly drawn) [DR5026] | – | 310 ± 128 pS | 12.5 µg/mL (≈ 18.9 µM) | 25 to 50 µg/mL (≈ 37.8 to 75.6 µM) | 50 µg/mL (≈ 75.6 µM) | 0.5 ± 0.2 | 1.56 µg/mL (≈ 2.36 µM) | 3.12 µg/mL (≈ 4.72 µM) | 0.6 | 3.1 | 29.7 | 76.4 | 175.5 s | 28.2 s
